Measurements taken from ChEMBL document CHEMBL4229478, “Synthesis, Characterization, and Biological Evaluation of a Porphyrin-Based Photosensitizer and Its Isomer for Effective Photodynamic Therapy against Breast Cancer” (J Med Chem, 2018).
Active and inactive are the calls of the source. The rule behind the calls is not given here.

Columns and labels:
[1] = Drug uptake in mitochondria of human MDA-MB-231 cells at 10 uM after 4 hrs by Mito tracker green-based confocal laser scanning microscopic analysis; assay type: ADME; conditions: mda-mb-231, 4 h
[2] = Selectivity index, ratio of dark toxicity against mouse 4T1 cells at 0.5 uM to phototoxicity against mouse 4T1 cells at 0.5 uM; assay type: cell-based; conditions: read-out: Selectivity Index
[3] = Drug uptake in spleen of BALB/c mouse xenografted with mouse 4T1 cells at 10 mg/kg, iv measured at 12 hrs post injection by IVIS spectrum imaging; assay type: ADME, organism-based; conditions: in vivo
Mus musculus [4] = assay: Toxicity in BALB/c mouse xenografted with mouse 4T1 cells assessed as pathological changes in spleen at 4 mg/kg, iv measured at day 22 post dose by hematoxylin and eosin staining based light microscopic analysis; assay type: organism-based; conditions: in vivo
MDA-MB-231 [5] = assay: Induction of ROS generation in human MDA-MB-231 cells incubated with DCF-DA probe for 30 mins by flow cytometric analysis (reference value: 2.1%); assay type: cell-based; conditions: mda-mb-231, 0.5 h
4T1 [6] = assay: Phototoxicity against mouse 4T1 cells assessed as cell viability at 0.5 uM preincubated for 4 hrs followed by 0.5 J/cm2 light irradiation and measured after 24 hrs by MTT assay relative to control; assay type: functional; conditions: 4T1, light or radiation study, read-out: Activity
[7] = Drug uptake in tumor of BALB/c mouse xenografted with mouse 4T1 cells at 10 mg/kg, iv measured up to 3 to 24 hrs post injection by fluorescence assay; assay type: ADME, organism-based, Neoplasm; conditions: in vivo
HUVEC = assay: Phototoxicity against HUVEC assessed as cell viability at 0.5 uM preincubated for 4 hrs followed by 0.5 to 2 J/cm2 light irradiation and measured after 24 hrs by MTT assay; assay type: cell-based; conditions: human
Mus musculus [8] = assay: Hepatotoxicity in BALB/c mouse xenografted with mouse 4T1 cells assessed as pathological changes in liver at 1 to 4 mg/kg, iv pre-tretaed for 24 hrs followed by 50 J/cm2 light irradiation and measured at day 22 post dose by hematoxylin and eosin staining based light microscopic analysis; assay type: toxicity, organism-based; conditions: in vivo
MDA-MB-231 [9] = assay: Induction of apoptosis in human MDA-MB-231 cells assessed as necrotic cells after 24 hrs upon light irradiation by Annexin-V FITC/propidium iodide staining based flow cytometric analysis (reference value: 4.24%); assay type: functional
4T1 [10] = assay: Antitumor activity against mouse 4T1 cells xenografted in BALB/c mouse assessed as inhibition of tumor volume at 1 mg/kg, iv pretreated for 24 hrs followed by 50 J/cm2 light irradiation and measured at day 22 post dose relative to control; assay type: functional; conditions: 4T1, light or radiation study
[11] = Drug uptake in lung of BALB/c mouse xenografted with mouse 4T1 cells at 10 mg/kg, iv measured at 12 hrs post injection by IVIS spectrum imaging; assay type: ADME, organism-based; conditions: in vivo
MDA-MB-231 [12] = assay: Induction of apoptosis in human MDA-MB-231 cells assessed as early apoptotic cells after 24 hrs by Annexin-V FITC/propidium iodide staining based flow cytometric analysis (reference value: 1.22%); assay type: cell-based; conditions: mda-mb-231, 24 h
4T1 [13] = assay: Induction of apoptosis in mouse 4T1 cells xenografted in BALB/c mouse at 4 mg/kg, iv after 24 hrs by TUNEL assay; assay type: functional, organism-based
Mus musculus [14] = assay: Hepatotoxicity in BALB/c mouse xenografted with mouse 4T1 cells assessed as pathological changes in liver at 4 mg/kg, iv pre-tretaed for 24 hrs followed by 50 J/cm2 light irradiation and measured at day 22 post dose by hematoxylin and eosin staining based light microscopic analysis; assay type: toxicity, organism-based; conditions: in vivo
MDA-MB-231 [15] = assay: Phototoxicity against human MDA-MB-231 cells assessed as cell viability at 0.5 uM preincubated for 4 hrs followed by 0.5 to 2 J/cm2 light irradiation and measured after 24 hrs by MTT assay; assay type: functional, cell-based
Mus musculus [16] = assay: Toxicity in BALB/c mouse xenografted with mouse 4T1 cells assessed as pathological changes in spleen at 1 to 4 mg/kg, iv pre-tretaed for 24 hrs followed by 50 J/cm2 light irradiation and measured at day 22 post dose by hematoxylin and eosin staining based light microscopic analysis; assay type: organism-based; conditions: in vivo
MDA-MB-231 [17] = assay: Induction of apoptosis in human MDA-MB-231 cells assessed as early apoptotic cells after 24 hrs upon light irradiation by Annexin-V FITC/propidium iodide staining based flow cytometric analysis (reference value: 1.22%); assay type: functional
MDA-MB-231 [18] = assay: Induction of ROS generation in human MDA-MB-231 cells incubated with DCF-DA probe for 30 mins followed by 2 J/cm2 light irradiation and measured after 1 hr by flow cytometric analysis (reference value: 2.1%); assay type: functional
4T1 [19] = assay: Antitumor activity against mouse 4T1 cells xenografted in BALB/c mouse at 4 mg/kg, iv preincubated for 24 hrs and measured at day 22 post dose; assay type: functional, organism-based
4T1 [20] = assay: Phototoxicity against mouse 4T1 cells assessed as cell viability at 0.5 uM preincubated for 4 hrs followed by 2 J/cm2 light irradiation and measured after 24 hrs by MTT assay relative to control; assay type: functional; conditions: 4T1, light or radiation study, read-out: Activity
[21] = Drug uptake in kidney of BALB/c mouse xenografted with mouse 4T1 cells at 10 mg/kg, iv measured at 12 hrs post injection by IVIS spectrum imaging; assay type: ADME, organism-based; conditions: in vivo
[22] = Drug uptake in human MDA-MB-231 cells at 5 uM after 4 hrs by fluorescence microscopic analysis; assay type: ADME, cell-based; conditions: mda-mb-231, 4 h
[23] = Drug uptake in heart of BALB/c mouse xenografted with mouse 4T1 cells at 10 mg/kg, iv measured at 12 hrs post injection by IVIS spectrum imaging; assay type: ADME, organism-based; conditions: in vivo
Mus musculus [24] = assay: Toxicity in BALB/c mouse xenografted with mouse 4T1 cells assessed as pathological changes in lung at 1 to 4 mg/kg, iv pre-tretaed for 24 hrs followed by 50 J/cm2 light irradiation and measured at day 22 post dose by hematoxylin and eosin staining based light microscopic analysis; assay type: organism-based; conditions: in vivo
MDA-MB-231 [25] = assay: Induction of ROS generation in human MDA-MB-231 cells incubated with DCF-DA probe for 30 mins by flow cytometric analysis (reference value: 5.81%); assay type: cell-based; conditions: mda-mb-231, 0.5 h
MDA-MB-231 [26] = assay: Induction of ROS generation in human MDA-MB-231 cells incubated with DCF-DA probe for 30 mins followed by 2 J/cm2 light irradiation and measured after 1 hr by flow cytometric analysis (reference value: 5.81%); assay type: functional

SMILES | Drug uptake [1] | selectivity ratio at 0.5 µM [2] | Drug uptake [3] | Activity (Mus musculus [4]) | viability at 0.5 µM (4T1 [6]) | Drug uptake [7] | Activity (HUVEC) | Activity (Mus musculus [8]) | Activity (MDA-MB-231 [9]) | inhibition in vivo at 1 mg/kg (4T1 [10]) | Drug uptake [11] | Activity (MDA-MB-231 [12]) | Activity (4T1 [13]) | Activity (Mus musculus [14]) | Activity (MDA-MB-231 [15]) | Activity (Mus musculus [16]) | Activity (MDA-MB-231 [17]) | viability at 0.5 µM (4T1 [20]) | Drug uptake [21] | Drug uptake [22] | also measured
C=CC1=C(C)c2cc3[nH]c(cc4nc(cc5[nH]c(cc1n2)c(C)c5CCC(=O)[O-])C(CCC(=O)[O-])=C4C)c(C)c3C(C)OCCCCCC.[Na+].[Na+] (centres undefined) | Active | 21.7 | Not Active | Non-Toxic | 98% | Active | Non-Toxic | Non-Toxic | 11.12% | 15.4% | Not Active | 4.02% | inactive | Non-Toxic | Active | Non-Toxic | 7.17% | 54.6% | Not Active | Active | Activity (MDA-MB-231 [5]): 2.21%; Activity (MDA-MB-231 [18]): 46.7%; Activity (4T1 [19]): inactive; Drug uptake [23]: Not Active; Activity (Mus musculus [24]): Non-Toxic
C=Cc1c(C)c2cc3nc(cc4[nH]c(cc5nc(cc1[nH]2)C(C)=C5C(C)OCCCCCC)c(C)c4CCC(=O)[O-])C(CCC(=O)[O-])=C3C.[Na+].[Na+] (centres undefined) | Active | 68.5 | Not Active | Non-Toxic | 86.4% | Active | Non-Toxic | Non-Toxic | 10.12% | 27.8% | Not Active | 3.72% | inactive | Non-Toxic | Active | Non-Toxic | 3.82% | 47.3% | Not Active | Active | Activity (MDA-MB-231 [25]): 6.34%; Activity (MDA-MB-231 [26]): 87.84%; Drug uptake [23]: Not Active; Activity (Mus musculus [24]): Non-Toxic
